Columns and labels:
[1] = GLP toxicity test; cited from earlier work
[2] = tested on: arthritis induced by bovine type II collagen in male DBA/1J mouse; assay: Collagen-induced arthritis animal model; type: in vivo; settings: for histopathological arthritis score of knee joint: knee joint of both hind legs, vs negative control (FIG. 6); for histopathological arthritis score of knee joint / concentration of IL-6 in serum: EC-18 125, 500, 2,000 mg/kg oral, Remicade 20 mg/kg intraperitoneal, methotrexate 2.5 mg/kg oral; for concentration of IL-6 in serum: serum collected at day of tissue excision, once a day for five weeks, vs negative control (FIG. 4)
Procedure: For arthritis animal model experiment, arthritis was induced in male DBA/1J mouse by administering bovine type II collagen to the mouse. Efficacy of EC-18 for treating (or improving) arthritis was evaluated by repeatedly administering EC-18 to the mouse orally. For comparison, Remicade (positive control 1) was administered intraperitoneally and methotrexate (positive control 2) was administered orally. The experiment included seven groups: normal group (G1), negative control (G2), 125 mg/kg, 500 mg/kg and 2,000 mg/kg of EC-18 (EC-18 treatment groups, G3, G4, G5), 20 mg/kg of Remicade (Positive control 1, G6) and 2.5 mg/kg of Methotrexate (Positive control 2, G7). Each group consists of 10 mice. Olive oil was administered to normal group (G1) and negative control group (G2) as an excipient. In all groups, administration was made once a day for five weeks (a total of 35 administrations). Remicade (G6) was administered intraperitoneally, whereas EC-18, methotrexate and olive oil were administered orally in force. For all groups except normal Group (G1), arthritis was induced by immunizing animals twice with bovine type II collagen and complete Freund's adjuvant or incomplete Freund's adjuvant emulsion. During the observation period, common arthritis symptoms were observed once a day, weigh measured once a week, arthritic score evaluation made with the naked eye twice a week, foot thickness measured twice a week.

Compound | toxicity [1] | histopathological arthritis score of knee joint [2] | concentration of IL-6 in serum [2] | crushing of cartilage and increase of Pannus (stained arthritic tissue) ([2]; EC-18 500 mg/kg (G4), Remicade 20 mg/kg (G6), vs negative control (FIGS. 7 and 8))
CCCCC/C=C\C/C=C\CCCCCCCC(=O)OC(COC(C)=O)COC(=O)CCCCCCCCCCCCCCC (stereo not drawn) [EC-18, 1-palmitoyl-2-linoleoyl-3-acetylglycerol] | no toxicity |  |  | 
CN(Cc1cnc2nc(N)nc(N)c2n1)c1ccc(C(=O)N[C@@H](CCC(=O)O)C(=O)O)cc1 [Methothrexate, methotrexate] |  | reduced | reduced | 
Remicade: positive control 1, administered intraperitoneally at 20 mg/kg |  | reduced | reduced | reduced
